The source of these data is patent publication US9446027B2, “Use of pidotimod to treat irritable bowel syndrome” (POLICHEM SA, priority 2013, dated 2016).

Square brackets hold non-standard residues; d marks the D form. Peptide text beside a SMILES is read from it. pGlu = O=C1CC[C@@H](C(=O)O)N1; Thz = O=C(O)[C@@H]1CSCN1

The experiment has as its system irritable bowel syndrome. Put plainly: Open label pilot trial in patients with IBS: overall and extracolonic IBS scores. The following applies: nine IBS patients, oral solution of Example 4 twice a day, after 12 weeks. It counts as in vivo, human. From the text:
Nine patients with IBS aged 25 to 60 years (5 female) were enrolled in an open label pilot trial to receive twice a day the composition as per the Example 4. IBS was diagnosed according to Rome II criteria for the diagnosis of IBS (Rasquin-Weber A: Childhood functional gastrointestinal disorders, Gut 1999;45 (Suppl II): II60-II68). Rome II Criteria for the Diagnosis of IBS: at least 12 weeks, which need not be consecutive, in the preceding 12 months of abdominal discomfort or pain that has at least two of the following three features: • 1. Relieved by defecation. • 2. Onset associated with changes in stool frequency. • 3. Onset associated with changes in stool form.
The overall IBS scores (IBS Symptoms, Pain severity, Pain frequency, Bloating, Bowel habit dissatisfaction, Life interference) and extracolonic IBS scores were assessed at 4, 8, and 12 weeks during treatment.

For the compound `O=C1CC[C@@H](C(=O)N2CSC[C@H]2C(=O)O)N1` [Pidotimod, (4R)-3-(5-oxo-L-prolyl)-1,3-thiazolidine-4-carboxylic acid] ([pGlu]-[Thz]-OH), where the note is “baseline 240, P<0.001”, the “post-treatment overall extracolonic IBS score” value is 90. Under “baseline 315, P<0.05”, the “overall IBS score (IBS Symptoms, Pain severity, Pain frequency, Bloating, Bowel habit dissatisfaction, Life interference)” value was 175.
